From US20220125746A1, “METHOD OF PREVENTING OR TREATING TREATMENT-INDUCED GASTROINTESTINAL INJURY” (priority 2019, published 2022)
Where a name gives a salt, the structure may show the parent alone.

Tests used:
[1] = PUMAi distribution in intestinal mucosa and plasma (LC-MS/MS); type: in vivo, mouse; conditions: for PUMAi concentration in intestinal mucosa compared to -1.5 hours: 10 mg/kg i.p.
Description: Acetonitrile and water (all HPLC grade) were purchased from Fisher Scientific. Formic acid and trifluoroacetic acid was purchased from Sigma-Aldrich. Stock solutions of PUMAi and [D5]-PUMAi internal standard were prepared at 1 mg/mL in DMSO, diluted 10 times in acetonitrile, and then stored at −80° C. On the day of the assay, the solution was serially diluted (in 10-fold steps) in acetonitrile to obtain the lower calibration working solutions of 0.01 and 0.001 mg/mL. These calibration working solutions were diluted in mouse plasma (Lampire Biological Laboratories, Inc.) to produce the following analyte concentrations: 10, 30, 50, 100, 300, 500, 1000, 3000 ng/mL. For each calibration series, zero (containing 10 ng/mL of internal standard) and blank samples were also prepared from 50 μL of Lampire plasma. Quality control (QC) stock solutions were diluted in Lampire mouse plasma to produce the following QC samples: QC Low (QCL) 20 ng/mL; QC Mid (QCM) 200 ng/mL, and QC High (QCH) 2500 ng/mL.
To extract PUMAi, we added 10 μL of internal standard solution (1000 ng/mL [D5]-PUMAi in acetonitrile) to 50 μL of plasma sample in a micro centrifuge tube. […]
The mass spectrometer was operated in ESI positive mode using MRM detection. […] The mass transitions monitored were m/z 331>143 for PUMAi and 345>157 for the internal standard.
To assess recovery from plasma, we compared areas from control plasma spiked with 1000 ng/mL of PUMAi, prepared as described above, with the areas obtained with a neat solution of PUMAi in water. Intestinal mucosa was analyzed after dilution in control plasma to within the calibration range. […]
PUMAi {1-[4-(2-hydroxyethyl)-1-piperazinyl]-3-(2-naphthyloxy)-2-propanol dihydrochloride} was synthesized by ChemBridge, with a purity of 95% by HPLC-MS, and an internal isotopic standard PUMAih7 (D5, five internal hydrogens replaced by deuterium) was synthesized by Alsachim, with purity approaching 100% by HPLC-MS. […] Detailed methods on LC-MS/MS (liquid chromatography-tandem MS) quantitation of PUMAi are found in Supplementary Materials and Methods.

BIM/MCL-1 = target: T1, BIM/MCL-1 (Homo sapiens, UniProt O43521); test: Immunoprecipitation of HA-BIM / V5-Mcl-1 from 293 lysates; type: binding; conditions: 25 uM, 15 min, anti-HA immunoprecipitation, western blot
T1 construct: expressed in transfected cells; host or cells: 293 cells; lysates used
Description: (FIG. 10A) Structure of the PUMA inhibitor lead compound (PUMAi). (FIG. 10B) Lysates of 293 cells transfected with individual plasmids for 24 hours were mixed in the indicated combinations. Lysates were incubated with vehicle or PUMA inhibitor (PUMAi, 25 μM) for 15 min before immunoprecipitation with an anti-HA antibody. The HA-bound proteins and input were analyzed by western blotting. (FIG. 10C) Lysates of 293 cells transfected with individual plasmids for 24 h were mixed in the indicated combinations. Lysates were incubated with vehicle or PUMA Inhibitor (PUMAi, 25 μM) for 15 min before immunoprecipitation with an anti-HA antibody. The HA-bound proteins and input were analyzed by western blotting. (FIG. 10D) Indicated colon cancer cell lines were treated with camptothecin (CPT, 500 nM) for 24 h. HCT 116 cells and PUMA KO HCT 116 cells have WT p53, others have no (KO) or mutant p53. Apoptosis was measured by nuclear fragmentation assay. Values are mean+SEM; n=3 independent experiments. (FIG. 10E) Cells were treated as in D for 24 h and analyzed by western blotting. Representative results are shown, and similar results were obtained in at least three independent experiments. […]

T1 sequence (O43521 whole entry, species assumed): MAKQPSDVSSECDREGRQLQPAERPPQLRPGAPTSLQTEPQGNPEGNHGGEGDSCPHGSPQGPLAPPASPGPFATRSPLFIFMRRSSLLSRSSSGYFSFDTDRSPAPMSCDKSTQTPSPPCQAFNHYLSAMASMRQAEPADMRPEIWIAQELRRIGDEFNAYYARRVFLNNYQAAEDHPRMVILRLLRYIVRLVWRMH
Description for LGR5+ stem cells: WT and Puma KO mice carrying the Lgr5-EGFP-IRES-creERT2 marking allele were treated with CPT-11 and PUMAi over 2 weeks as in FIGS. 5A-5G and analyzed for intestinal phenotypes. (FIG. 6A) GFP (LGR5) immunofluorescence in intestinal crypts. Arrows indicate LGR5^+ (GFP) crypts. Scale bar, 100 um. (FIG. 6B) Quantitation of intestinal crypts containing at least one GFP^+ (LGR5^+) cell. (FIG. 6C) Top: Olfm4 RNA ISH in intestinal crypts. Scale bar, 50 um. Asterisks indicate Olfm4+ crypt cells. Bottom: Percentage of crypts containing at least one Olfm4+ cell. (FIG. 6D) MMP7 immunofluorescence in intestinal crypts. Scale bar, 100 um. (FIG. 6E) Quantitation of MMP7+ crypt cells at the crypt base (CBC region). (FIG. 6F) Top: GFP (LGR5) and MMP7 immunofluorescence in intestinal crypts. Scale bar, 20 um. Asterisks indicate LGR5^+/MMP7^+ cell pairs. Bottom: Quantitation of LGR5^+/MMP7^+ cell pairs per crypt. In (FIG. 6A), (FIG. 6D), and (FIG. 6F), DAPI was used to stain nuclei. In (FIG. 6B), (FIG. 6C), (FIG. 6E), and (FIG. 6F), values are means+SEM; n=3 mice. *P<0.05, **P<0.01, and ***P<0.001 (one-way ANOVA with Tukey post hoc test).
LGR5 (GFP) IF. Sections were deparaffinized and rehydrated through graded ethanols. Antigen retrieval was performed by boiling for 10 minutes in 0.1 M citrate buffer (pH 6.0) with 1 mM EDTA. Non-specific antibody binding was blocked using 20% goat serum (Invitrogen) at room temperature for 30 min. […] Sections were then washed in PBS and mounted with VectaShield+DAPI (Vector Labs).
MMP7 IF. Sections were prepared as described above. Non-specific antibody binding was blocked using 20% chicken serum (Invitrogen) at room temperature for 30 min. Sections were washed in PBS and incubated overnight at 4 °C in a humidified chamber with 1:100 diluted goat anti-MMP7 (AF2967; R&D Systems). […] Sections were then washed in PBS and mounted with VectaShield+DAPI (Vector Labs) for visualization.
LGR5(GFP)/1VIMP7 IF. Sections were prepared as described above. Non-specific antibody binding was blocked using 20% chicken serum (Invitrogen) at room temperature for 30 min. Sections were then stained for GFP as described above, followed by staining for MMP7 as described.
ISH for Olfm4 was carried out with the RNAscope 2.0 BROWN kit (Advanced Cell Diagnostics) according to the manufacturer's instructions. Briefly, tissue sections were baked for 60 min at 60 ÅåC, then deparaffinized in xylene, and rehydrated through graded ethanols. Sections then underwent three pretreatment steps, probe hybridization, six amplification steps, development, and counterstaining.

OCCN1CCN(CC(O)COc2ccc3ccccc3c2)CC1 (stereo not drawn) [PUMAi, 1-[4-(2-hydroxyethyl)-1-piperazinyl]-3-(2-naphthyloxy)-2-propanol dihydrochloride]
drop in Olfm4+ crypts (RNA ISH) (LGR5+ stem cells; after six doses of CPT-11): 49% | loss and mislocalization of MMP7+ cells and of MMP7+/LGR5+ contact (LGR5+ stem cells; repeated CPT-11 treatment): suppressed | PUMAi concentration in intestinal mucosa compared to -1.5 hours ([1]; +1 hour of CPT-11 administration): 67% | PUMAi concentration in intestinal mucosa compared to -1.5 hours ([1]; +6 hours of CPT-11 administration): 30% | PUMAi concentration in plasma over time ([1]; -1.5, +1, +6 hours, compared with intestinal mucosa): dropped more quickly in the plasma | inhibition of BIM/MCL-1 interaction (BIM/MCL-1): not of BIM/MCL-1
